Literature values in patent US20060074053A1, “Ophthalmic solution containing quinolone antimicrobial compound” (SANTEN PHARMACEUTICAL CO., LTD., priority 2003, published 2006).

Conditions: after instillation of ciprofloxacin-containing ophthalmic solution; Am. J. Ophthalmol., 117, pp 258-259 (1994)

For `O=C(O)c1cn(C2CC2)c2cc(N3CCNCC3)c(F)cc2c1=O` [ciprofloxacin], the “precipitate on the surface of the eyes after instillation” value is given as “liberated as a precipitate on the surface of the eyes (corneal epithelium)”.
